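Dose response: 5 concentrations. Exposure: 48 h. Format: 96-well plates. Endpoint: linear interpolation; highest concentration if not reached. The concentration for full growth arrest is given as TGI.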
Experiments:
Test in all cases: NCI-60 cell line screen, 48 h
EKVX NSCLC = tested on: EKVX NSCLC
A498 renal = tested on: A498 renal
CCRF-CEM leukemia = tested on: CCRF-CEM leukemia
SR leukemia = tested on: SR leukemia
LOX IMVI melanoma = tested on: LOX IMVI melanoma
SF-539 CNS = tested on: SF-539 CNS
RPMI-8226 leukemia = tested on: RPMI-8226 leukemia
ACHN renal = tested on: ACHN renal
KM12 colon = tested on: KM12 colon
OVCAR-8 ovarian = tested on: OVCAR-8 ovarian
U251 CNS = tested on: U251 CNS
SNB-78 CNS = tested on: SNB-78 CNS
MOLT-4 leukemia = tested on: MOLT-4 leukemia
SK-MEL-5 melanoma = tested on: SK-MEL-5 melanoma
HCC-2998 colon = tested on: HCC-2998 colon
COLO 205 colon = tested on: COLO 205 colon
SK-MEL-28 melanoma = tested on: SK-MEL-28 melanoma
SK-OV-3 ovarian = tested on: SK-OV-3 ovarian
HOP-18 NSCLC = tested on: HOP-18 NSCLC
SK-MEL-2 melanoma = tested on: SK-MEL-2 melanoma
SN12C renal = tested on: SN12C renal
DLD-1 colon = tested on: DLD-1 colon
HCT-116 colon = tested on: HCT-116 colon
RXF 393 renal = tested on: RXF 393 renal
IGROV1 ovarian = tested on: IGROV1 ovarian
OVCAR-3 ovarian = tested on: OVCAR-3 ovarian
UO-31 renal = tested on: UO-31 renal
HOP-62 NSCLC = tested on: HOP-62 NSCLC
XF 498 CNS = tested on: XF 498 CNS
HCT-15 colon = tested on: HCT-15 colon
NCI-H23 lung = tested on: NCI-H23 lung
SNB-75 CNS = tested on: SNB-75 CNS
SF-295 CNS = tested on: SF-295 CNS
DMS 273 small cell lung = tested on: DMS 273 small cell lung
KM20L2 colon = tested on: KM20L2 colon
K-562 leukemia = tested on: K-562 leukemia
DMS 114 small cell lung = tested on: DMS 114 small cell lung
LXFL 529 NSCLC = tested on: LXFL 529 NSCLC
786-0 renal = tested on: 786-0 renal
M14 melanoma = tested on: M14 melanoma
MALME-3M melanoma = tested on: MALME-3M melanoma
TK-10 renal = tested on: TK-10 renal
OVCAR-4 ovarian = tested on: OVCAR-4 ovarian
UACC-257 melanoma = tested on: UACC-257 melanoma
HL-60(TB) leukemia = tested on: HL-60(TB) leukemia
NCI-H460 lung = tested on: NCI-H460 lung
NCI-H522 lung = tested on: NCI-H522 lung
UACC-62 melanoma = tested on: UACC-62 melanoma
SF-268 CNS = tested on: SF-268 CNS
OVCAR-5 ovarian = tested on: OVCAR-5 ovarian
HT29 colon = tested on: HT29 colon
SNB-19 CNS = tested on: SNB-19 CNS
M19-MEL melanoma = tested on: M19-MEL melanoma
SW-620 colon = tested on: SW-620 colon
NCI-H226 lung = tested on: NCI-H226 lung
A549 NSCLC = tested on: A549 NSCLC
MCF7 breast = tested on: MCF7 breast
MDA-MB-231 breast = tested on: MDA-MB-231 breast
CAKI-1 renal = tested on: CAKI-1 renal
HS 578T breast = tested on: HS 578T breast
MDA-N = tested on: MDA-N
PC-3 prostate = tested on: PC-3 prostate
HOP-92 NSCLC = tested on: HOP-92 NSCLC
MDA-MB-435 = tested on: MDA-MB-435
NCI/ADR-RES ovarian = tested on: NCI/ADR-RES ovarian
BT-549 breast = tested on: BT-549 breast
DU-145 prostate = tested on: DU-145 prostate
T-47D breast = tested on: T-47D breast

Measured: TGI

CC(=O)OCCOCNC(=S)N/N=C(\C)c1cccs1
> 100 µM: EKVX NSCLC | A498 renal | CCRF-CEM leukemia | SR leukemia | LOX IMVI melanoma | SF-539 CNS | RPMI-8226 leukemia | ACHN renal | KM12 colon | OVCAR-8 ovarian | U251 CNS | SNB-78 CNS | MOLT-4 leukemia | SK-MEL-5 melanoma | HCC-2998 colon | COLO 205 colon | SK-MEL-28 melanoma | SK-OV-3 ovarian | HOP-18 NSCLC | SK-MEL-2 melanoma | SN12C renal | DLD-1 colon | HCT-116 colon | RXF 393 renal | IGROV1 ovarian | OVCAR-3 ovarian | UO-31 renal | HOP-62 NSCLC | XF 498 CNS | HCT-15 colon | NCI-H23 lung | SNB-75 CNS | SF-295 CNS | DMS 273 small cell lung | KM20L2 colon | K-562 leukemia | DMS 114 small cell lung | LXFL 529 NSCLC | 786-0 renal | M14 melanoma | MALME-3M melanoma | TK-10 renal | OVCAR-4 ovarian | UACC-257 melanoma | HL-60(TB) leukemia | NCI-H460 lung | NCI-H522 lung | UACC-62 melanoma | SF-268 CNS | OVCAR-5 ovarian | HT29 colon | SNB-19 CNS | M19-MEL melanoma | SW-620 colon | NCI-H226 lung | A549 NSCLC

CC(C)=CCC[C@@H](C)C1=CC(=O)C(C)=C(O)C1=O
16.4 µM: SK-MEL-5 melanoma
31.8 µM: SK-OV-3 ovarian
5.79 µM: K-562 leukemia
14.2 µM: OVCAR-4 ovarian
11.9 µM: LOX IMVI melanoma
27.5 µM: OVCAR-5 ovarian
15.8 µM: OVCAR-3 ovarian
25.7 µM: HOP-62 NSCLC
10.8 µM: ACHN renal
25.5 µM: UACC-257 melanoma
11.8 µM: HCT-116 colon
18.2 µM: PC-3 prostate
> 23.5 µM: MOLT-4 leukemia
8.08 µM: HCT-15 colon
33.5 µM: SW-620 colon
23.3 µM: MALME-3M melanoma
6.35 µM: T-47D breast
31 µM: SK-MEL-28 melanoma
27.3 µM: SF-295 CNS
4.83 µM: OVCAR-8 ovarian
5.92 µM: RXF 393 renal
5.64 µM: RPMI-8226 leukemia
15.7 µM: TK-10 renal | DU-145 prostate
14 µM: SNB-75 CNS
21.1 µM: HS 578T breast | NCI-H23 lung
16.6 µM: MDA-N
17.4 µM: M14 melanoma
23.2 µM: IGROV1 ovarian
3.9 µM: CCRF-CEM leukemia
32.9 µM: HCC-2998 colon
25 µM: A549 NSCLC
22.6 µM: SN12C renal
28.3 µM: COLO 205 colon
38.7 µM: U251 CNS
11.3 µM: NCI/ADR-RES ovarian
22.8 µM: NCI-H226 lung
13.9 µM: EKVX NSCLC
16.1 µM: KM12 colon
18.1 µM: MDA-MB-231 breast | BT-549 breast
17.5 µM: 786-0 renal
34.9 µM: A498 renal
24.1 µM: UACC-62 melanoma
29.4 µM: SNB-19 CNS
22.5 µM: HT29 colon
13.5 µM: UO-31 renal
0.878 µM: HL-60(TB) leukemia
26.3 µM: SK-MEL-2 melanoma
16.9 µM: MDA-MB-435
16 µM: MCF7 breast
24.3 µM: SF-268 CNS
7.18 µM: HOP-92 NSCLC
10.5 µM: CAKI-1 renal
43.1 µM: NCI-H460 lung
2.78 µM: NCI-H522 lung
5.98 µM: SR leukemia

Cn1nc2ccc3nccc(NCCNCCO)c3c2n1
45.2 µM: NCI-H460 lung
90.9 µM: UO-31 renal
76.9 µM: UACC-257 melanoma
69 µM: MOLT-4 leukemia
87.5 µM: RXF 393 renal
43.1 µM: LOX IMVI melanoma
70 µM: HT29 colon
44 µM: COLO 205 colon
85.8 µM: NCI-H226 lung
> 100 µM: CCRF-CEM leukemia | SR leukemia | SF-539 CNS | RPMI-8226 leukemia | ACHN renal | KM12 colon | OVCAR-8 ovarian | U251 CNS | CAKI-1 renal | SNB-78 CNS | SK-MEL-5 melanoma | HCC-2998 colon | SK-MEL-28 melanoma | SK-OV-3 ovarian | SN12C renal | DLD-1 colon | IGROV1 ovarian | OVCAR-3 ovarian | HOP-62 NSCLC | XF 498 CNS | HCT-15 colon | NCI-H23 lung | SNB-75 CNS | SF-295 CNS | KM20L2 colon | K-562 leukemia | HOP-92 NSCLC | LXFL 529 NSCLC | 786-0 renal | M14 melanoma | MALME-3M melanoma | TK-10 renal | OVCAR-4 ovarian | HL-60(TB) leukemia | NCI-H522 lung | UACC-62 melanoma | SF-268 CNS | OVCAR-5 ovarian | SNB-19 CNS | M19-MEL melanoma | SW-620 colon | A549 NSCLC
89.4 µM: HCT-116 colon

COc1ccc(CCCN2c3ccccc3Sc3ccccc32)cc1
> 100 µM: EKVX NSCLC | A498 renal | CCRF-CEM leukemia | LOX IMVI melanoma | SF-539 CNS | RPMI-8226 leukemia | ACHN renal | KM12 colon | OVCAR-8 ovarian | U251 CNS | CAKI-1 renal | SNB-78 CNS | MOLT-4 leukemia | SK-MEL-5 melanoma | HCC-2998 colon | COLO 205 colon | SK-MEL-28 melanoma | SK-OV-3 ovarian | HOP-18 NSCLC | SK-MEL-2 melanoma | SN12C renal | DLD-1 colon | HCT-116 colon | RXF 393 renal | IGROV1 ovarian | UO-31 renal | HOP-62 NSCLC | XF 498 CNS | HCT-15 colon | NCI-H23 lung | SNB-75 CNS | SF-295 CNS | DMS 273 small cell lung | KM20L2 colon | K-562 leukemia | HOP-92 NSCLC | DMS 114 small cell lung | LXFL 529 NSCLC | 786-0 renal | M14 melanoma | MALME-3M melanoma | TK-10 renal | OVCAR-4 ovarian | UACC-257 melanoma | HL-60(TB) leukemia | NCI-H460 lung | NCI-H522 lung | UACC-62 melanoma | SF-268 CNS | OVCAR-5 ovarian | HT29 colon | SNB-19 CNS | SW-620 colon | NCI-H226 lung | A549 NSCLC

From PubChem BioAssay (NCI)
